{"source": "paper PMC8909834", "about": "“An Orally Bioavailable and Highly Efficacious Inhibitor of CDK9/FLT3 for the Treatment of Acute Myeloid Leukemia” (Cancers, 2022)", "assay_in_all_cases": "Kinase Hotspot radiolabel assay", "type_in_all_cases": "biochemical", "settings_in_all_cases": "read-out: % Residual Activity", "key": {"[1]": {"biological_target": "T1, SNARK/NUAK2 (Homo sapiens, UniProt Q9H093)", "T1 construct": "purchased Reaction Biology Corporation (Kinase HotSpot)", "how_it_was_run": "(§1)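 Radiometric Hotspot screen: single test concentration of 1 µM, 369 kinases. Ki follow-up was applied only where inhibition exceeded 90%.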"}, "[2]": {"biological_target": "T2, MST4 (Homo sapiens, UniProt Q9P289)", "T2 construct": "purchased Reaction Biology Corporation (Kinase HotSpot)", "how_it_was_run": "as §1"}, "[3]": {"biological_target": "T3, PKAcb (Homo sapiens, UniProt P22694)", "T3 construct": "purchased Reaction Biology Corporation (Kinase HotSpot)", "how_it_was_run": "as §1"}, "[4]": {"biological_target": "T4, NEK4 (Homo sapiens, UniProt P51957)", "T4 construct": "purchased Reaction Biology Corporation (Kinase HotSpot)", "how_it_was_run": "as §1"}, "[5]": {"biological_target": "T5, JAK2 (Homo sapiens, UniProt O60674)", "T5 construct": "purchased Reaction Biology Corporation (Kinase HotSpot)", "how_it_was_run": "as §1"}, "[6]": {"biological_target": "T6, FLT1/VEGFR1 (Homo sapiens, UniProt P17948)", "T6 construct": "purchased Reaction Biology Corporation (Kinase HotSpot)", "T6 sequence (P17948 27-1338)": "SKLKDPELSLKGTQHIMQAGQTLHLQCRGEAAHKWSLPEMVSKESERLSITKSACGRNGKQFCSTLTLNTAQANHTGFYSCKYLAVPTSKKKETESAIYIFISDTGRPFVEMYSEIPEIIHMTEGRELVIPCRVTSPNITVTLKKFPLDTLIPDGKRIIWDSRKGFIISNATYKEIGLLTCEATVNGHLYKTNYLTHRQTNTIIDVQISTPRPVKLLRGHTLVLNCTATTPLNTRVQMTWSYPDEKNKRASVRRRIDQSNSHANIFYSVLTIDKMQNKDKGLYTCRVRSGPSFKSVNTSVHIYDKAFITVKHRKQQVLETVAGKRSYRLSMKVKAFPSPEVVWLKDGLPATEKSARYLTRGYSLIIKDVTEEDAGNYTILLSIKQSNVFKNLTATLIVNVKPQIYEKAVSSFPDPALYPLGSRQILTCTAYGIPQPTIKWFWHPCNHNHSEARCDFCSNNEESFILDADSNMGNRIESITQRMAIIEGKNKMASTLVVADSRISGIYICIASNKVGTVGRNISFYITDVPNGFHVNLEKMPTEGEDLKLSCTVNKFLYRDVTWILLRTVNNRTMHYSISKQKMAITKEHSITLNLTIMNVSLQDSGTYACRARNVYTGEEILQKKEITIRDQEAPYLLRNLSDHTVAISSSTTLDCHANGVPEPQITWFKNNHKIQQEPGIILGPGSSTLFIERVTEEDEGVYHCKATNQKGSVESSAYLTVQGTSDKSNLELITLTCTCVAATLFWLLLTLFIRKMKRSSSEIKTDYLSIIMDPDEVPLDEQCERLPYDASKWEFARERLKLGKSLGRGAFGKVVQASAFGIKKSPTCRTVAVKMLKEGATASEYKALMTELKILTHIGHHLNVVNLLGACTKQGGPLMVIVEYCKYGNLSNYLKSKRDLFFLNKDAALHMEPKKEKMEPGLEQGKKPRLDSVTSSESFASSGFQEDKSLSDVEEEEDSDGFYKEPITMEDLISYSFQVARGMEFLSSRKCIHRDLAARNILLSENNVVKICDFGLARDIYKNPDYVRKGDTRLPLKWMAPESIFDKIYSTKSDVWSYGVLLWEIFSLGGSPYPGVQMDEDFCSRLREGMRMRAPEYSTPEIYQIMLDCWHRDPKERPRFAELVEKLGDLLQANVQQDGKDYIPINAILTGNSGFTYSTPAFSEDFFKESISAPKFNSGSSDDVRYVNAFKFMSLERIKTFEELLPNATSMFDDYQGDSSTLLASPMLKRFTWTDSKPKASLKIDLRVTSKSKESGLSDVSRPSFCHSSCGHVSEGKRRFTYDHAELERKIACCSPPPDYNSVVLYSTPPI", "how_it_was_run": "as §1"}, "[7]": {"biological_target": "T7, LYN B (Homo sapiens, UniProt P07948)", "T7 construct": "purchased Reaction Biology Corporation (Kinase HotSpot)", "how_it_was_run": "as §1"}, "[8]": {"biological_target": "T8, TESK1 (Homo sapiens, UniProt Q15569)", "T8 construct": "purchased Reaction Biology Corporation (Kinase HotSpot)", "how_it_was_run": "as §1"}, "[9]": {"biological_target": "T9, CAMK4 (Homo sapiens, UniProt Q16566)", "T9 construct": "purchased Reaction Biology Corporation (Kinase HotSpot)", "how_it_was_run": "as §1"}, "[10]": {"biological_target": "T10, EPHB1 (Homo sapiens, UniProt P54762)", "T10 construct": "purchased Reaction Biology Corporation (Kinase HotSpot)", "T10 sequence (P54762 18-984)": "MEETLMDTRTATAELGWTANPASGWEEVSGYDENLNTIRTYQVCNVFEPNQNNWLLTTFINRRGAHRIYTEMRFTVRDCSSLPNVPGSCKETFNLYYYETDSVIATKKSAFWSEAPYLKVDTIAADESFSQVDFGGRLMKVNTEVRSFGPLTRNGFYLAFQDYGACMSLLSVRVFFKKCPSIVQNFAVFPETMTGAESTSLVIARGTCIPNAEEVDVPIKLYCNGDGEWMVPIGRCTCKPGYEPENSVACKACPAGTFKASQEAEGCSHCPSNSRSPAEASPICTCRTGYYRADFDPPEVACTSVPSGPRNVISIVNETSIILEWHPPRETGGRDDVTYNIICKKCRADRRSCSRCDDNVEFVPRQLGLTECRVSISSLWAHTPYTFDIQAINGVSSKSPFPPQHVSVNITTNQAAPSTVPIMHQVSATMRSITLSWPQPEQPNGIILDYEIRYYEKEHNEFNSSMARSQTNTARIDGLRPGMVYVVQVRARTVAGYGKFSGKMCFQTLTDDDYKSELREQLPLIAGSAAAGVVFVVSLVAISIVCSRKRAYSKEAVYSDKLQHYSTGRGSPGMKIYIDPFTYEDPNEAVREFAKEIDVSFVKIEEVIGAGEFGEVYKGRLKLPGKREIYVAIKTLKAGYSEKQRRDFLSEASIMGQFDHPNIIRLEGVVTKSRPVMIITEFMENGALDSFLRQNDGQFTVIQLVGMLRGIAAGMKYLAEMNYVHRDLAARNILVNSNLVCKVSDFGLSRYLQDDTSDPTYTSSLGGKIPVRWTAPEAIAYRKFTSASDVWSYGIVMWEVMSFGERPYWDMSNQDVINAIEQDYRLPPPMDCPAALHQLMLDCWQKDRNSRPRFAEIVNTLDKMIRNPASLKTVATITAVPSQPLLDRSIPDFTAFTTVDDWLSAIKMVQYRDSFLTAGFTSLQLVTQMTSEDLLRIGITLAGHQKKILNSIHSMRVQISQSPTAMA", "how_it_was_run": "as §1"}, "[11]": {"biological_target": "T11, DYRK2 (Homo sapiens, UniProt Q92630)", "T11 construct": "purchased Reaction Biology Corporation (Kinase HotSpot)", "how_it_was_run": "as §1"}, "[12]": {"biological_target": "T12, JNK2 (Homo sapiens, UniProt P45984)", "T12 construct": "purchased Reaction Biology Corporation (Kinase HotSpot)", "how_it_was_run": "as §1"}, "[13]": {"biological_target": "T13, PKCnu/PRKD3 (Homo sapiens, UniProt O94806)", "T13 construct": "purchased Reaction Biology Corporation (Kinase HotSpot)", "how_it_was_run": "as §1"}, "[14]": {"biological_target": "T14, P38a/MAPK14 (Homo sapiens, UniProt Q16539)", "T14 construct": "purchased Reaction Biology Corporation (Kinase HotSpot)", "T14 sequence (Q16539 whole entry)": "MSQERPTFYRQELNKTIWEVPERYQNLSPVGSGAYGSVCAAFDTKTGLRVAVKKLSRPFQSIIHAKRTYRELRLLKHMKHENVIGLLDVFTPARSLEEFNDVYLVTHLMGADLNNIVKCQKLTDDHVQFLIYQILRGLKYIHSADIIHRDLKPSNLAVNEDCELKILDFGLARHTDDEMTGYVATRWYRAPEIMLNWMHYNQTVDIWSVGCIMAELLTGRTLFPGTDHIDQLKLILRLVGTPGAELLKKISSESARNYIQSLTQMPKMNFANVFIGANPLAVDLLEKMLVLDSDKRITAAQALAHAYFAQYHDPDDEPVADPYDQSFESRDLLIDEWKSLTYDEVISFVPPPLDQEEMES", "how_it_was_run": "as §1"}, "[15]": {"biological_target": "T15, MAPKAPK2 (Homo sapiens, UniProt P49137)", "T15 construct": "purchased Reaction Biology Corporation (Kinase HotSpot)", "how_it_was_run": "as §1"}, "[16]": {"biological_target": "T16, STK38L/NDR2 (Homo sapiens, UniProt Q9Y2H1)", "T16 construct": "purchased Reaction Biology Corporation (Kinase HotSpot)", "how_it_was_run": "as §1"}, "[17]": {"biological_target": "T17, MKK4 (Homo sapiens, UniProt P45985)", "T17 construct": "purchased Reaction Biology Corporation (Kinase HotSpot)", "how_it_was_run": "as §1"}, "[18]": {"biological_target": "T18, PKCepsilon (Homo sapiens, UniProt Q02156)", "T18 construct": "purchased Reaction Biology Corporation (Kinase HotSpot)", "how_it_was_run": "as §1"}, "[19]": {"biological_target": "T19, CDK1/cyclin A (Homo sapiens, UniProt P06493)", "T19 construct": "purchased Reaction Biology Corporation (Kinase HotSpot)", "how_it_was_run": "as §1"}, "[20]": {"biological_target": "T20, BLK (Homo sapiens, UniProt P51451)", "T20 construct": "purchased Reaction Biology Corporation (Kinase HotSpot)", "T20 sequence (P51451 whole entry)": "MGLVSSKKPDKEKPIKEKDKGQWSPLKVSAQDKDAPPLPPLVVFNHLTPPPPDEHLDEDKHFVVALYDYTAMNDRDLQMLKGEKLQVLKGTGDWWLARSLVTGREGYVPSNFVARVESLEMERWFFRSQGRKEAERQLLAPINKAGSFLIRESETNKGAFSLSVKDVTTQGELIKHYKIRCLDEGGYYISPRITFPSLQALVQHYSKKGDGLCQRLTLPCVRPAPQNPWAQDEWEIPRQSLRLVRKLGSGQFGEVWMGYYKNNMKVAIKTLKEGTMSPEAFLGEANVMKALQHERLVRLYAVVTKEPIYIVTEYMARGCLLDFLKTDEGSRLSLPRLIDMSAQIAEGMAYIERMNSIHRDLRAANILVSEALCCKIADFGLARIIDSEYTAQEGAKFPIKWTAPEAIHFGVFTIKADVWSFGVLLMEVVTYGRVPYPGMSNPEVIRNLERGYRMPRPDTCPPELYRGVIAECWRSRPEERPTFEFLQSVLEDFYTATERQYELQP", "how_it_was_run": "as §1"}, "[21]": {"biological_target": "T21, CK1g2 (Homo sapiens, UniProt P78368)", "T21 construct": "purchased Reaction Biology Corporation (Kinase HotSpot)", "how_it_was_run": "as §1"}, "[22]": {"biological_target": "T22, EPHA8 (Homo sapiens, UniProt P29322)", "T22 construct": "purchased Reaction Biology Corporation (Kinase HotSpot)", "how_it_was_run": "as §1"}, "[23]": {"biological_target": "T23, GSK3b (Homo sapiens, UniProt P49841)", "T23 construct": "purchased Reaction Biology Corporation (Kinase HotSpot)", "T23 sequence (P49841 whole entry)": "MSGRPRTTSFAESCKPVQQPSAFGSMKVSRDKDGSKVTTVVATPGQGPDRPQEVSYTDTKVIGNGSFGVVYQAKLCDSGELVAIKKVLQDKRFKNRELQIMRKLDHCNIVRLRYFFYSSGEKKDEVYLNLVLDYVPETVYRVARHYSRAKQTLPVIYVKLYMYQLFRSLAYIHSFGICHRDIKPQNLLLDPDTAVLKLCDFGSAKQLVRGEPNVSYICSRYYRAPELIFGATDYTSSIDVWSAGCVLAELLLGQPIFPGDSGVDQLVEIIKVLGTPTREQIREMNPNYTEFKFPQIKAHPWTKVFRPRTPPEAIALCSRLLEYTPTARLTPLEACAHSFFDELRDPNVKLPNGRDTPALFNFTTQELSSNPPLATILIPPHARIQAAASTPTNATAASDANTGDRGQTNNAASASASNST", "how_it_was_run": "as §1"}, "[24]": {"biological_target": "T24, CDK1/cyclin E (Homo sapiens, UniProt P06493)", "T24 construct": "purchased Reaction Biology Corporation (Kinase HotSpot)", "how_it_was_run": "as §1"}, "[25]": {"biological_target": "T25, MST2/STK3 (Homo sapiens, UniProt Q13188)", "T25 construct": "purchased Reaction Biology Corporation (Kinase HotSpot)", "how_it_was_run": "as §1"}, "[26]": {"biological_target": "T26, c-MER (Homo sapiens, UniProt Q12866)", "T26 construct": "purchased Reaction Biology Corporation (Kinase HotSpot)", "how_it_was_run": "as §1"}, "[27]": {"biological_target": "T27, CK1g1 (Homo sapiens, UniProt Q9HCP0)", "T27 construct": "purchased Reaction Biology Corporation (Kinase HotSpot)", "T27 sequence (Q9HCP0 whole entry)": "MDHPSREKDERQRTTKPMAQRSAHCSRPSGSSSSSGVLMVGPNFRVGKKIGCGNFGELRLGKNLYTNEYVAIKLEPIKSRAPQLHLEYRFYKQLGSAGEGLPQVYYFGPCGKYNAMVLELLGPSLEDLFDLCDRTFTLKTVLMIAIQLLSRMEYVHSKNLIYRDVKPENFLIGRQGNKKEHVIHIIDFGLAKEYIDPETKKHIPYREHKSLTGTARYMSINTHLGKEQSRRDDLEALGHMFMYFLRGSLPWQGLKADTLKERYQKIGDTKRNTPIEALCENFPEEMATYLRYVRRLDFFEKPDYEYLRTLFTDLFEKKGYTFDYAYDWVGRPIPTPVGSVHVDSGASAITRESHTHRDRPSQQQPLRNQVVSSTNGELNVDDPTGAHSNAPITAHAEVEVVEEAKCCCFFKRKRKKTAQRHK", "how_it_was_run": "as §1"}, "[28]": {"biological_target": "T28, MEK5 (Homo sapiens, UniProt Q13163)", "T28 construct": "purchased Reaction Biology Corporation (Kinase HotSpot)", "T28 sequence (Q13163 whole entry)": "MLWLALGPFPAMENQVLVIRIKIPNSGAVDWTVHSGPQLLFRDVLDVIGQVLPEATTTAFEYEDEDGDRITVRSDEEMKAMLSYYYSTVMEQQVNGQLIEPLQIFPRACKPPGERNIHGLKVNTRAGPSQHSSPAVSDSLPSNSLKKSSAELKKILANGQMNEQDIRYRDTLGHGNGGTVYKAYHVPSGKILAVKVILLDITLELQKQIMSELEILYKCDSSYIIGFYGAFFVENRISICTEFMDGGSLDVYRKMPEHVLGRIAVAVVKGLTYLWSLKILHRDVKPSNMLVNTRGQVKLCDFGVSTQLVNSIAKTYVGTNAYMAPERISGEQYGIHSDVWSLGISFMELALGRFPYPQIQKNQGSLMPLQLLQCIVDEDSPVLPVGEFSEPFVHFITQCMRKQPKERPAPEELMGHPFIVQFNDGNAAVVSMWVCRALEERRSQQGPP", "how_it_was_run": "as §1"}, "[29]": {"biological_target": "T29, CDK9/cyclin T1 (Homo sapiens, UniProt P50750)", "T29 construct": "purchased Reaction Biology Corporation (Kinase HotSpot)", "how_it_was_run": "as §1"}, "[30]": {"biological_target": "T30, PAK4 (Homo sapiens, UniProt O96013)", "T30 construct": "purchased Reaction Biology Corporation (Kinase HotSpot)", "T30 sequence (O96013 whole entry)": "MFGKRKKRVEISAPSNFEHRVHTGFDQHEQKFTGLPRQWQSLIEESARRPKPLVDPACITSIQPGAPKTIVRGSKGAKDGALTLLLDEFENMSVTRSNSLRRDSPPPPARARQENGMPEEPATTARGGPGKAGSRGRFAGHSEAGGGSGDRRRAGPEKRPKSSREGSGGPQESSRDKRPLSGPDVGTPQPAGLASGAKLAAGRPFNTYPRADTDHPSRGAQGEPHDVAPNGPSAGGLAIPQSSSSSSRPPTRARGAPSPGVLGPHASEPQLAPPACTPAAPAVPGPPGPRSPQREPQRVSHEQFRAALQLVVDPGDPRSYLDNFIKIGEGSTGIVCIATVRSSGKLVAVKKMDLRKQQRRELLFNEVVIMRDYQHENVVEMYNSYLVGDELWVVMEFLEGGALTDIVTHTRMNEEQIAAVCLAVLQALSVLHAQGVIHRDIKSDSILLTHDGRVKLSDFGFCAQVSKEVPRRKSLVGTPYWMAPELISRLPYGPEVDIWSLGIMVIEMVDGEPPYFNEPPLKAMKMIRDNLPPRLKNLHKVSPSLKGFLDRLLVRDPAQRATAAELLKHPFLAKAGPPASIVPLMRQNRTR", "how_it_was_run": "as §1"}}}
{"smiles": "Cc1cnc(N[C@H]2CC[C@H](N)CC2)nc1-c1cnc2ccc(-c3ccccc3)cn12", "note": "[CDDD11-8]", "values": [{"measurement": "remaining activity at 1 µM", "setting": "[1]", "value": 45.2, "unit": "%"}, {"measurement": "remaining activity at 1 µM", "setting": "[2]", "value": 92.9, "unit": "%"}, {"measurement": "remaining activity at 1 µM", "setting": "[3]", "value": 89.6, "unit": "%"}, {"measurement": "remaining activity at 1 µM", "setting": "[4]", "value": 78.8, "unit": "%"}, {"measurement": "remaining activity at 1 µM", "setting": "[5]", "value": 70, "unit": "%"}, {"measurement": "remaining activity at 1 µM", "setting": "[6]", "value": 53.4, "unit": "%"}, {"measurement": "remaining activity at 1 µM", "setting": "[7]", "value": 88.5, "unit": "%"}, {"measurement": "remaining activity at 1 µM", "setting": "[8]", "value": 113, "unit": "%"}, {"measurement": "remaining activity at 1 µM", "setting": "[9]", "value": 97.3, "unit": "%"}, {"measurement": "remaining activity at 1 µM", "setting": "[10]", "value": 88.1, "unit": "%"}, {"measurement": "remaining activity at 1 µM", "setting": "[11]", "value": 12.7, "unit": "%"}, {"measurement": "remaining activity at 1 µM", "setting": "[12]", "value": 103, "unit": "%"}, {"measurement": "remaining activity at 1 µM", "setting": "[13]", "value": 35.1, "unit": "%"}, {"measurement": "remaining activity at 1 µM", "setting": "[14]", "value": 106, "unit": "%"}, {"measurement": "remaining activity at 1 µM", "setting": "[15]", "value": 106, "unit": "%"}, {"measurement": "remaining activity at 1 µM", "setting": "[16]", "value": 96.7, "unit": "%"}, {"measurement": "remaining activity at 1 µM", "setting": "[17]", "value": 75.6, "unit": "%"}, {"measurement": "remaining activity at 1 µM", "setting": "[18]", "value": 54.7, "unit": "%"}, {"measurement": "remaining activity at 1 µM", "setting": "[19]", "value": 78, "unit": "%"}, {"measurement": "remaining activity at 1 µM", "setting": "[20]", "value": 47.2, "unit": "%"}, {"measurement": "remaining activity at 1 µM", "setting": "[21]", "value": 59.4, "unit": "%"}, {"measurement": "remaining activity at 1 µM", "setting": "[22]", "value": 83.5, "unit": "%"}, {"measurement": "remaining activity at 1 µM", "setting": "[23]", "value": 94.5, "unit": "%"}, {"measurement": "remaining activity at 1 µM", "setting": "[24]", "value": 87.5, "unit": "%"}, {"measurement": "remaining activity at 1 µM", "setting": "[25]", "value": 15, "unit": "%"}, {"measurement": "remaining activity at 1 µM", "setting": "[26]", "value": 52.3, "unit": "%"}, {"measurement": "remaining activity at 1 µM", "setting": "[27]", "value": 62.8, "unit": "%"}, {"measurement": "remaining activity at 1 µM", "setting": "[28]", "value": 99.6, "unit": "%"}, {"measurement": "remaining activity at 1 µM", "setting": "[29]", "value": 18.5, "unit": "%"}, {"measurement": "remaining activity at 1 µM", "setting": "[30]", "value": 99.7, "unit": "%"}]}
